Data on 14 compounds can be found in ChEMBL document CHEMBL1201862, “PubChem BioAssay data set” (2004).

Each structure is given as a SMILES string.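 Tested at 5 concentrations; 48 h exposure; 96-well plates; endpoints linearly interpolated, else capped at highest concentration. GI50 is the concentration that inhibits growth by half.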 Active and inactive are the calls of the source. Cut-off read from the data, not from the text of the source: active = GI50 up to about 1.1 µM and inactive = higher.

Assay in all cases: DTP human tumour cell line panel, 48 h
Assay [1] deals with A498.
Assay [2] relates to HCC 2998.
The test system of assay [3] is HOP-62.
In assay [4] the test system is HT-29.
Assay [5] relates to K562.
For assay [6], the system named is LOX IMVI.
The test system of assay [7] is M14.
The subject of assay [8] is NCI-H226.
For assay [9], the system named is NCI-H522.
Assay [10] deals with OVCAR-3.
For assay [11], the system named is OVCAR-4.
The test system of assay [12] is SF-295.
Assay [13] relates to SK-MEL-28.
Assay [14] has as its system SNB-75.
The subject of assay [15] is SR.
Assay [16] has as its system COLO 205.
In assay [17] the test system is HOP-92.

Turning to `c1ccc2c(c1)cc1n2CC2CN=NC12` (centres undefined), the GI50 in [1], in assay [2], in assay [3], in assay [4], in [5] and in assay [6] was > 100 µM (inactive) throughout. Besides, the GI50 in assay [7], in [8], in assay [9], in assay [10], in [11] and in assay [12] was > 100 µM (inactive) each time. For the same compound, the values for the GI50 in [13], in assay [14] and in assay [15] were > 100 µM (inactive), 47.8 µM (inactive) and > 100 µM (inactive), respectively.

In the case of `COC(=O)/C(C#N)=C1\CCC(OC)N1` (centres undefined), the GI50 in [16], in [2], in assay [3], in [4], in assay [5] and in [6] was > 100 µM (inactive) throughout. Further, the GI50 in assay [7], in assay [8], in [9], in assay [10], in [11] and in assay [12] was > 100 µM (inactive) in each case. The GI50 in assay [13] and in [14] was > 100 µM (inactive) throughout.

`CC1=C(C(=O)Nc2ccc([N+](=O)[O-])cc2)C(c2ccccc2F)C(C(=O)Nc2ccc([N+](=O)[O-])cc2)=C(C)N1`: the GI50 (usually the concentration giving 50% growth inhibition) in [1] was 5.48 µM (inactive); in assay [16], 13 µM (inactive); in [2], 5.94 µM (inactive); in assay [3], 15 µM (inactive); in assay [17], 4.45 µM (inactive); in [4] it was 20.1 µM (inactive). In addition, the GI50 was 6.61 µM (inactive) in assay [5]; 11 µM (inactive) in assay [6]; 15.1 µM (inactive) in assay [7]; 14 µM (inactive) in assay [8]; 8.2 µM (inactive) in assay [9]; 8.32 µM (inactive) in assay [10]. Besides, the GI50 in assay [11] was 9.14 µM (inactive); in [12] it was 20.3 µM (inactive); in assay [13], 20.7 µM (inactive); in assay [14] it was 13.9 µM (inactive).

`COC(=O)c1sc(=NC(=S)N2CCCCC2)sc1C(=O)OC`: the GI50 was > 100 µM (inactive) in [1]; 63 µM (inactive) in assay [16]; > 100 µM (inactive) in assay [2]; > 100 µM (inactive) in assay [3]; 71.6 µM (inactive) in [5]; > 100 µM (inactive) in assay [7]. Besides, the GI50 in assay [8] was > 100 µM (inactive); in [9], 0.569 µM (active); in [10], 3.01 µM (inactive); in [11], > 100 µM (inactive); in assay [13] it was > 100 µM (inactive); in assay [14], > 100 µM (inactive). Also, the GI50 in [15] was 22.9 µM (inactive).

Consider `Cn1cc(C(=O)c2ccccc2)cc(C(=O)c2ccccc2)c1=O`, for which the GI50 in assay [16], in assay [2], in [3], in [17], in [4] and in assay [5] was > 100 µM (inactive) in each case. Besides, the GI50 in assay [6], in assay [7], in assay [8], in [9], in assay [10] and in assay [11] was > 100 µM (inactive) throughout. The GI50 in [12], in [13], in assay [14] and in [15] was > 100 µM (inactive) throughout.

`CCOP(=O)(OCC)C1=NC=CC=CC1n1c(-c2ccccc2)nn(CC)c1=O` (centres undefined): the GI50 in assay [16] was > 100 µM (inactive); in [2], > 100 µM (inactive); in assay [3], > 100 µM (inactive); in assay [17], 7.06 µM (inactive); in [4], > 100 µM (inactive); in assay [6], > 100 µM (inactive). Moreover, the GI50 in [8], in assay [9], in assay [10], in [12], in [13] and in [15] was > 100 µM (inactive) each time.

In the case of `O=C1OC(=O)c2c1c(-c1ccccc1)nc1ccccc21`, the GI50 in [1], in [16], in [2], in [3], in assay [4] and in [5] was > 100 µM (inactive) each time. In addition, the GI50 in assay [6], in [7], in assay [8], in [9], in assay [10] and in [12] was > 100 µM (inactive) each time. Moreover, the GI50 in assay [13] and in assay [14] was > 100 µM (inactive) each time.

As for `COc1ccc(/C=C2\C(=O)N(C(=O)Cc3ccccc3)N=C2C)cc1OC`, the GI50 in assay [16], in assay [2], in [3], in assay [4], in assay [5] and in assay [6] was > 100 µM (inactive) each time. Also, the GI50 in assay [7], in assay [8], in assay [9], in assay [10], in [11] and in assay [12] was > 100 µM (inactive) each time. In addition, the GI50 in assay [13], in [14] and in assay [15] was > 100 µM (inactive) throughout.

As to `COC(=O)C(=Cc1cc(OC)c(OC)c(OC)c1-c1cc2c(cc1C1(C)OCCS1)OCO2)C(=O)OC` (centres undefined), the GI50 was 40 µM (inactive) in assay [16]; 32.2 µM (inactive) in assay [2]; 29.2 µM (inactive) in [3]; 3.5 µM (inactive) in [17]; 37 µM (inactive) in [4]; 33.6 µM (inactive) in [5]. Moreover, the GI50 is 22.6 µM (inactive) in assay [6]; 32.2 µM (inactive) in assay [8]; 15.8 µM (inactive) in [9]; 15.2 µM (inactive) in assay [10]; 31.6 µM (inactive) in [12]; 33.4 µM (inactive) in assay [13]. Further, in assay [15], the GI50 was 22.2 µM (inactive).

As to `Cc1cccc2c1Sc1ccccc1C2NC(=O)CCN(C)C` (centres undefined), the GI50 in assay [16], in assay [2], in assay [3], in assay [4], in assay [5] and in assay [6] was > 100 µM (inactive) throughout. Moreover, the GI50 in assay [7] is > 100 µM (inactive); in assay [8], > 100 µM (inactive); in [11], > 100 µM (inactive); in assay [13], > 100 µM (inactive); in assay [14] it was 96.4 µM (inactive); in assay [15] it was > 100 µM (inactive).

Turning to `CCC1CN2CCc3cc(OC)c(OC)cc3C2CC1CC1c2cc(OC)c(OC)cc2CCN1C(=O)CNC(=O)OC(C)(C)C` (centres undefined), the GI50 in assay [1] was 32.3 µM (inactive); in [16], 3.44 µM (inactive); in assay [2], 3.1 µM (inactive); in assay [4], 3.49 µM (inactive); in assay [5], 3.34 µM (inactive); in assay [6], 4.48 µM (inactive). Besides, the GI50 in assay [7] was > 10 µM (inactive); in assay [8], 18.3 µM (inactive); in [10], 11.9 µM (inactive); in [11], 2.88 µM (inactive); in [12] it was 3.9 µM (inactive); in assay [13], 23.8 µM (inactive). Also, the GI50 in [14] is 20.9 µM (inactive).

Consider `CCC12CCCN(Cc3ccccc3)C1c1c(n(C)c3ccccc13)[C@H](C(=O)OC)C2` (some centres undefined), for which the GI50 in [16] was 112 µM (inactive); in assay [2] it was > 239 µM (inactive); in assay [3], > 239 µM (inactive); in assay [17], 10.6 µM (inactive); in assay [4], 32 µM (inactive); in [5], > 239 µM (inactive). Besides, the GI50 in assay [6] was > 239 µM (inactive); in assay [8] it was > 239 µM (inactive); in assay [9] it was 122 µM (inactive); in [10], > 239 µM (inactive); in assay [12], > 239 µM (inactive); in [13], > 239 µM (inactive). Also, the GI50 in assay [15] was > 239 µM (inactive).

In the case of `CC(=O)C1C(=O)C(=O)N(c2ccccc2C(C)C)C1=O` (centres undefined), the GI50 in assay [1], in assay [16], in [2], in assay [3], in assay [17] and in assay [4] was > 100 µM (inactive) in each case. The GI50 in assay [5], in assay [6], in assay [7], in [8], in assay [9] and in assay [10] was > 100 µM (inactive) in each case. The GI50 in assay [11], in assay [12], in assay [13] and in assay [14] was > 100 µM (inactive) each time.

For `CC1C[C@]2(C[C@@H](C)C(=O)O2)O[C@@H]2CC3(C)[C@@H]4CCC5C(C)(C)OC(=O)C[C@H]6OO[C@]4(CC[C@]3(C)C12)CC56O` (some centres undefined), the GI50 in assay [2], in assay [4], in assay [6], in [7], in assay [8] and in assay [9] was > 100 µM (inactive) in each case. The GI50 in [10], in assay [11], in [12], in assay [13], in assay [14] and in [15] was > 100 µM (inactive) each time.
